Results from PMC6473174, “Ranking Hits From Saturation Transfer Difference Nuclear Magnetic Resonance–Based Fragment Screening” (Frontiers in Chemistry, 2019).

What was measured:
[1] = target: T1, murine langerin (Mus musculus, UniProt Q8VBX4); set-up: method as in Aretz et al. (2018); settings: estimated by SPR; murine langerin on CM7 chip; 25 mM HEPES pH 7.6, 150 mM NaCl, 5 mM CaCl2, 0.005% Tween-20; ref Aretz et al. (2018); read-out: Affinity; cited from earlier work
T1 sequence (Q8VBX4 1-331): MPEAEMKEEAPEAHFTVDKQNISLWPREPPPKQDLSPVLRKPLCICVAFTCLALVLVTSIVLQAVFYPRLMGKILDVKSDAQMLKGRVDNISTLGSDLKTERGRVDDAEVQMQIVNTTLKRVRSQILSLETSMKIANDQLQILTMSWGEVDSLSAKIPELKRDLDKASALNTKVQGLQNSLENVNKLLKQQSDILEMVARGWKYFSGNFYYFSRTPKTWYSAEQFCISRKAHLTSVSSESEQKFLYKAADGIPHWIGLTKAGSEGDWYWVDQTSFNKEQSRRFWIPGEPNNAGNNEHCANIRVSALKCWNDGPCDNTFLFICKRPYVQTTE

[2] = target: T1, murine langerin; assay: STD NMR measurements (fragment screening and epitope mapping), STD amplification factor; format: binding
Method: STD NMR experiments were performed as described elsewhere (Aretz et al., [2018]). Briefly, 10 μM murine langerin was screened against a library of 660 fragments at a ligand concentration [L] = 0.2 mM using a saturation time of tsat = 4 s. Hits were counter-screened by SPR (see the section Estimation of Affinity Using Surface Plasmon Resonance), enabling affinity estimation and hit validation. For SPR-validated hits, the STD amplification factor was determined as reported earlier (Mayer and Meyer, [2001]) and plotted against affinity (Figure 1A). For epitope mapping of thiazolopyrimidine derivatives (Figure 2E), protein concentration was [P] = 20 μM, ligand concentration was [L] = 0.5–1 mM, and tsat = 1 s. Affinity of all derivatives was estimated by SPR (see the section Estimation of Affinity Using Surface Plasmon Resonance), and the STD amplification factor was determined as reported earlier for the proton in the 7-position of the thiazolopyrimidine scaffold (Mayer and Meyer, [2001]). Spectra were analyzed in MestReNova 10.0.0.

[3] = target: Heat shock protein HSP 90-alpha (HSP90AA1; P07900); set-up: method as in Roughley and Hubbard, 2011; settings: HSP90 fragment complexes, Figure 2; ref Roughley and Hubbard, 2011; read-out: Affinity; cited from earlier work
[4] = target: Beta-lactamase (ampC; P00811); settings: read-out: Affinity; AmpC fragment complexes, Figure 2; ref Barelier et al., 2014; cited from earlier work
[5] = target: cAMP and cAMP-inhibited cGMP 3',5'-cyclic phosphodiesterase 10A (PDE10A; Q9Y233); set-up: method as in Recht et al., 2014; settings: PDE10A fragment complexes, Figure 2; ref Recht et al., 2014; read-out: Affinity; cited from earlier work
[6] = target: Glycogen synthase kinase-3 beta (GSK3B; P49841); settings: GSK3b complex PDB 4J71, Figure S4; read-out: Affinity; cited from earlier work
[7] = Figure 1a fragment screening, [P] = 10 μM, [L] = 0.2 mM, tsat = 4 s

Compound	Kd [1]	STD amplification factor [2, 7]	other results
c1ccc(-c2nnc3n2CCCC3)cc1 [S30]	10 ± 3 mM	8	–
Cn1cc(CC(=O)O)c2ccccc21 [S53]	3 ± 0.1 mM	37	–
COC(=O)c1cc(C)c(N)c(Br)c1 [S39]	28 ± 9 mM	49	–
COc1ccccc1/C=C1/C(=O)N=C(N)N1C [S31]	4 ± 2 mM	5	–
OCc1cc(-c2ccccc2)on1 [S58]	2.3 ± 0.1 mM	19	–
N#Cc1c(N)sc2c1CCCC2 [S13]	1.5 ± 0.3 mM	33	–
CCC(=O)c1ccc(O)cc1O [CHEMBL539379]	–	–	Kd [3]: 0.57 mM
CN(C)C(=O)Oc1cccc(C(=O)O)c1 [S22]	~4 mM	24	–
Cc1cc(C)c(S(=O)(=O)C(C)C)c(Cl)n1 [S38]	4.7 ± 0.7 mM	4	–
CNC(=O)Nc1nnc(C(C)(C)C)s1 [S44]	2.9 ± 0.4 mM	7	–
CC(=O)Nc1ccc2nc(C)oc2c1 [S57]	5.7 ± 0.4 mM	2	–
COC(=O)c1cc2c(s1)CCC2 [S65]	4.5 ± 0.7 mM	43	–
O=C(O)Cc1cccc2occc12 [S6]	4.3 ± 0.5 mM	55	–
O=C(O)c1cccn(Cc2ccccc2)c1=O [S55]	24.7 ± 10.3 mM	10	–
NC(=O)c1ccccc1N [CHEMBL43175]	–	–	Kd [3]: > 0.4 mM
COc1ccc(NS(C)(=O)=O)cc1 [S56]	16.8 ± 3.6 mM	3	–
Nc1cccc2c1CN(C1CCCCC1)C2=O [S11]	0.7 ± 0.2 mM	23	–
COC(=O)Cc1cc(O)cc(O)c1 [CHEMBL540934]	–	–	Kd [3]: 0.49 mM
Nc1ccc2sc(C(=O)O)cc2c1 [S66]	11.6 ± 0.1 mM	44	–
C[C@@H](C(=O)O)N(c1ccccc1)S(C)(=O)=O [4KZB]	–	–	Kd [4]: 1.3 mM
CCN1C(=O)c2ccccc2NC12CCCC2 [S37]	13 ± 2 mM	2	–

Compound	Kd [1]	STD amplification factor [2, 7]	other results
CC(=O)c1ccn(S(=O)(=O)c2ccccc2)c1 [S36]	19 ± 1 mM	44	–
COc1cc(C(=O)O)c(Br)cc1C [S42]	5.4 ± 0.9 mM	79	–
COc1cc(C(C)=O)ccc1N [S63]	9 ± 1 mM	4	–
Cc1nc2ccccc2c(=O)[nH]1 [CHEMBL395092]	–	–	Kd [5]: 0.99 mM
COc1ccc2c(c1)C(CC(=O)O)CC2=O (stereo not shown) [S12]	1.1 ± 0.2 mM	10	–
O=c1c(-c2ccn[nH]2)cnc2sccn12 [compound 1]	0.8 ± 0.1 mM	16	STD amplification factor ([2]; Figure 2e thiazolopyrimidine SAR, proton in 7-position, [P] = 20 μM, [L] = 0.5–1 mM, tsat = 1 s): 1.8
O=C(Nc1ccccc1O)c1cccnc1Cl [S60]	2.4 ± 0.1 mM	24	–
CCNCc1cc(O)ccc1Br [S59]	2 ± 0.3 mM	13	–
CN(C)C(=O)c1csc(-c2ccccc2)n1 [S52]	2.7 ± 0.4 mM	3	–
CN(C)S(=O)(=O)c1cccc(C(=O)O)c1 [S15]	11.3 ± 3 mM	41	–
CCC(C)(C(=O)O)c1cccs1 (stereo not shown) [S21]	3.3 ± 0.2 mM	13	–
CCN1C(=O)CC(=O)N(CC)C1=S [CHEMBL2136061]	–	–	Kd [4]: 1.6 mM
Cc1nnc(-c2ccccc2)nc1O [S3]	4.7 ± 0.6 mM	19	–
CC1CCCC(C(=O)O)N1C(=O)CCS (stereo not shown) [CHEMBL331575]	–	–	Kd [4]: 0.8 mM
C[C@@H]1Nc2cccnc2NC1=O [CHEMBL3941552]	–	–	Kd [6]: > 3 mM
O=C1NC(=O)[C@@H]2CN(Cc3ccccc3)C[C@H]12 [S23]	4.9 ± 0.2 mM	4	–
O=C1NC(=O)C(Cc2ccncc2)S1 (stereo not shown) [S61]	3.8 ± 0.3 mM	16	–
NC(=O)c1ccc(Cl)s1 [S18]	3.5 ± 0.2 mM	21	–
O=C(O)c1sccc1S(=O)(=O)NC1CC1 [4KZA]	–	–	Kd [4]: 0.2 mM
Cc1ccsc1/C=C/C(=O)O [S8]	3.4 ± 0.4 mM	86	–
O=C(O)/C=C/c1ccc2c(c1)OCCO2 [S14]	2.2 ± 0.2 mM	36	–
